{"source": "patent US20050215548A1", "about": "(Cyclacel Limited, priority 2002, published 2005)", "format_in_all_cases": "cell-based, human", "key": {"H1299": {"tested_on": "H1299", "experiment": "Combination treatment with cisplatin or etoposide, MTT, H1299", "description": "(§1) It is well established that radiotherapy and most current forms of chemotherapy cause extensive genetic damage and induction of the p53-dependent apoptotic pathway, which determines the important role of this tumor suppressor protein in cancer therapy. HDM2, on the other hand, as a transcriptional product and negative regulator pf p53, would destabilise p53 and diminish its pro-apoptotic function. Inhibitors of the p53-HDM2 negative feedback loop (e.g. compounds disrupting the p53-HDM2 complex) are expected to synergise with cytotoxic agents for induction of p53 and subsequent apoptosis. […] Both chemotherapeutic agents were used in the concentration range of 100-0.19 μM."}, "MCF7 or H1299 cells": {"tested_on": "MCF7 or H1299 cells", "experiment": "Cell cycle distribution, propidium iodide flow cytometry", "details": "5 times IC50", "protocol": "Cells were stained with propidium iodide and the cell cycle position was determined using a flow cytometer."}, "AGS cells": {"tested_on": "AGS cells", "experiment": "Caspase activity (casp ACE assay), AGS", "details": "five times the IC50, compared with cisplatin treatment", "protocol": "In more detail: (A) Cells were treated with […] [IC50] of compound 2 or cisplatinum and collected at the time points indicated. Cell lysates were prepared, the caspase activity was determined using the casp ACE assay and values were plotted on a graph. (B) Cells were treated with 5 times [IC50] of compound 2 or cisplatinum and collected at the time points indicated. AGS cells were also incubated with compound 2 in the presence of a caspase inhibitor Z-VAD.fmk. Cell lysates were prepared, the caspase activity was determined using the casp ACE assay and values were plotted on a graph.\nTo characterise the apoptosis-inducing properties of bisarylsulfonamides caspase ⅓ activty was measured. AGS or H1299 cells were treated with a low concentration of compound 2 or cisplatin corresponding to twice the IC50 value (FIG. 6A). Morphological changes were detected in 10-20% of cells by 72 hours corresponding to an induction of caspase activity first detected at 48 hours, increasing by 72 hours. We also treated AGS and H1299 cells with higher concentrations corresponding to five times the IC50 (FIG. 6B). In this experiment we included a […], Z-VAD.fmk to determine the caspase responsible."}, "AGS": {"tested_on": "AGS", "experiment": "Combination treatment with cisplatin or etoposide, MTT, AGS", "description": "as §1"}, "[1]": {"tested_on": "key proteins in the HDM2 pathway", "experiment": "SDS-PAGE and immunoblotting of key proteins in the HDM2 pathway", "description": "Equal amounts of cell lysate were separated by SDS-PAGE and analysed by immunoblotting using the indicated antibodies. An estimation of the extent of cell rounding is indicated above each lane. […] (B) The effect of compound 2 on the levels of the cell cycle proteins in AGS cells (wild-type 53). […] Equal amounts of cell lysate were separated by SDS-PAGE and analysed by immunoblotting using the indicated antibodies. An estimation of the extent of cell rounding is indicated above each lane. (C) The effect of negative control compound (refer Example 10), compound 2, cisplatin, and anisomycin on the levels of key proteins in MCF7 cells. […] Cisplatinum and anisomycin (a transcription inhibitor) treatments were with 50 μM or 37 μM, respectively. Cells were harvested at various time points; afterwards lysates were prepared and separated by SDS-PAGE and analysed by immunoblotting. The proteins detected are indicated. The extent of rounded or floating cells and the percentage viable cells were assessed. […] Equal amounts of cell lysate were separated by SDS-PAGE and analysed by immunoblotting using a range of antibodies. An estimation of the extent of cell rounding is indicated above each lane. […] SJSA1 cells were treated with 5 times [IC50] of compound 2 and collected at the indicated time points. Equal amounts of cell lysate were separated by SDS-PAGE and analysed by immunoblotting using a range of antibodies. An estimation of the extent of cell rounding is indicated above each lane.\nMany types of cellular stress converge on the p53 pathway and induce its activity. […] The biological effect of bisarylsufonamides on cellular level was studies using representative compounds (mainly compound 2) and number of cell lines with different HDM2 and p53 status. These were overexpressing Hdm2 (SJSA1—osteosarcoma), wild type p53 and normal levels of HDM2 (AGS—gastric adenocarcinoma, MCF7—breast adenocarcinoma), or p53 null, low levels of HDM2 (H1299—large cell lung carcinoma).\nCells were lysed and equal amounts were analysed by SDS-polyacrylamide gel electrophoresis (SDS-PAGE) and immunoblotting."}, "[2]": {"details": "2 added 6 hours before etoposide"}, "[3]": {"details": "2 added prior to the treatment with cisplatin"}}}
{"smiles": "O=[N+]([O-])c1cc(S(=O)(=O)Nc2ccc(Cl)cc2)sc1Cl", "note": "[Compound 2, 5-Chloro-4-nitrothiophene-2-sulfonic acid (4-chlorophenyl)-amide]", "values": [{"measurement": "IC50 of etoposide, fold lower in cells pre-treated with 2", "setting": "H1299; [2]", "result": 25, "unit": "fold"}, {"measurement": "potency increase of cisplatin", "setting": "H1299; [3]", "result": 16, "unit": "fold"}, {"measurement": "IC50", "setting": "H1299; Homo sapiens, NCI-H1299, MTT, 72 hours, Table 5, read-out: IC50, agent alone", "result": 5.1, "unit": "µM"}, {"measurement": "cell cycle arrest", "setting": "MCF7 or H1299 cells", "result": "no detectable arrest at any phase of the cell cycle"}, {"measurement": "sub-G1 cells, indicative of apoptosis", "setting": "MCF7 or H1299 cells", "result": "induced sub-G1 cells"}, {"measurement": "caspase activity", "setting": "AGS cells", "result": "only weak caspase activity was induced by 24 hours"}, {"measurement": "IC50 of etoposide, fold lower in cells pre-treated with 2", "setting": "AGS; [2]", "result": 3.5, "unit": "fold"}, {"measurement": "potency increase of cisplatin", "setting": "AGS; [3]", "result": 18.5, "unit": "fold"}, {"measurement": "IC50", "setting": "AGS; Homo sapiens, MTT, 72 hours, Table 5, read-out: IC50, agent alone", "result": 1100, "unit": "nM"}, {"measurement": "HDM2 and E2F-1 protein levels", "setting": "[1]; AGS, H1299, MCF7 or SJSA1 cells, five times the anti-proliferative IC50", "result": "rapid reduction in HDM2 and E2F-1 levels"}, {"measurement": "JNK phosphorylation", "setting": "[1]; MCF7 cells", "result": "transient induction in JNK phosphorylation"}, {"measurement": "p38 MAPK pathway induction", "setting": "[1]; MCF7 cells", "result": "no clear induction of the p38 MAPK pathway"}, {"measurement": "p53 level and p53 phosphorylation at serine 15", "setting": "[1]; compound 2: AGS, H1299, MCF7 or SJSA1 cells, etoposide or cisplatinum: AGS or MCF7 cells", "result": "no induction of p53 nor p53 phosphorylation at serine 15"}, {"measurement": "PARP cleavage / PARP levels", "setting": "[1]; five times IC50, 85-kDa cleavage product marker for apoptosis", "result": "very rapid in H1299 cells but less so in AGS, MCF7 or SJSA1 cells"}]}
